Here are results for seven compounds from patent US10047036B2, “Method for the synthesis of hydroxy-triglycerides and uses thereof for the prevention and treatment of diseases” (UNIVERSITAT DE LES ILLES BALEARS, priority 2014, dated 2018).

Molecules are shown by their SMILES.

This assay can be described thus: membrane transition temperatures by X-ray diffraction. Type of assay: physicochemical. The conditions noted are these: POPE with 1 mol % of TGM. An excerpt: As can be appreciated, the presence of TGM induce a very important reduction in the lateral surface tension which is evident from the reduction in the value of the lamellar-to-hexagonal (L-a-HII) transition temperature, which in turn indicates an increase in non-lamellar propensity: Table 12). This effect has an important repercussion on the functionality of the membrane, as this structure allows for the anchoring of certain membrane proteins necessary for cell signalling. For this reason, it can be said that the TGMs have a positive effect on cell signalling because they allow the propagation of cell signals which are lost in association with a wide variety of diseases. This effect shown on the structure of the membrane explains in part why certain oils, such as olive oil or fish oil, have important beneficial properties for the prevention of various diseases, such as cancer, cardiovascular/metabolic diseases and neurological/neurodegenerative diseases. FIG. 6 and Table 12 show clearly how all the TGMs have a similar effect, although with minor nuances in each case. The effect on the solid-liquid transition (Tm) and the lamellar to hexagonal transition (TH) was measured in membranes of palmitoyl-oleoyl phosphatidylethanolamine (POPE) by means of X-ray diffraction in the absence of (POPE Control) or presence of 1 mol % of each one of the indicated TGMs.
Take `CCCCCC(O)C(=O)OCC(COC(=O)C(O)CCCCC)OC(=O)C(O)CCCCC` (centres unmarked) [TGM0, 1,2,3-tri(2′-hydroxyheptanoyl)glycerol]: the “TH, lamellar to hexagonal transition temperature” value (“TH, lamellar” for short) was determined as 68.3 ± 0.6 °C and the “Tm, solid-liquid transition temperature” value came to 22.7 ± 0.2 °C.
Taken in the same sequence, the figures for `CCC=CCC=CCC=CCCCCCCC(O)C(=O)OCC(COC(=O)C(O)CCCCCCC=CCC=CCC=CCC)OC(=O)C(O)CCCCCCC=CCC=CCC=CCC` (centres unmarked) [TGM3A, 1,2,3-tri(2′-hydroxy-octadec-9′,12′,15′-trienoyl)glycerol] were 63.0 ± 1.1 °C and 23.4 ± 0.2 °C.
On to `CCCCCCCCC=CCCCCCCC(O)C(=O)OCC(COC(=O)C(O)CCCCCCC=CCCCCCCCC)OC(=O)C(O)CCCCCCC=CCCCCCCCC` (centres unmarked) [TGM1, 1,2,3-tri(2′-hydroxy-octadec-9′-enoyl)glycerol], for which the “TH, lamellar” value is 66.0 ± 0.9 °C and the “Tm, solid-liquid transition temperature” value came to 23.8 ± 0.3 °C.
On to `CCC=CCC=CCC=CCC=CCC=CCC=CCC(O)C(=O)OCC(COC(=O)C(O)CC=CCC=CCC=CCC=CCC=CCC=CCC)OC(=O)C(O)CC=CCC=CCC=CCC=CCC=CCC=CCC` (centres unmarked) [TGM6, 1,2,3-tri(2′-hydroxy-docosa-4′,7′,10′,13′,16′,19′-hexanoyl)glycerol], for which the “TH, lamellar” value was determined as 64.9 ± 0.9 °C and the “Tm, solid-liquid transition temperature” value is 23.3 ± 0.2 °C.
`CCCCCC=CCC=CCC=CCCCC(O)C(=O)OCC(COC(=O)C(O)CCCC=CCC=CCC=CCCCCC)OC(=O)C(O)CCCC=CCC=CCC=CCCCCC` (centres unmarked) [TGM3G, 1,2,3-tri(2′-hydroxy-octadec-6′,9′,12′-trienoyl)glycerol]: the “TH, lamellar” value came out at 63.6 ± 1.1 °C and the “Tm, solid-liquid transition temperature” value was 23.3 ± 0.3 °C.
On the same counts, the results for `CCCCCC=CCC=CCCCCCCC(O)C(=O)OCC(COC(=O)C(O)CCCCCCC=CCC=CCCCCC)OC(=O)C(O)CCCCCCC=CCC=CCCCCC` (centres unmarked) [TGM2, 1,2,3-tri(2′-hydroxy-octadec-9′,12′-dienoyl)glycerol] are 62.0 ± 1.1 °C and 23.6 ± 0.3 °C.
On the same counts, the results for `CCCCCC=CCC=CCC=CCC=CCCC(O)C(=O)OCC(COC(=O)C(O)CCC=CCC=CCC=CCC=CCCCCC)OC(=O)C(O)CCC=CCC=CCC=CCC=CCCCCC` (centres unmarked) [TGM4, 1,2,3-tri(2′-hydroxy-eicosa-5′,8′,11′,14′-tetraenoyl)glycerol] are 64.6 ± 0.8 °C and 23.2 ± 0.2 °C.
